What all share (test): Post-emergence efficacy, Method A
What all share (assay type): in vivo

In experiment [1] the test system is Digitaria sanguinalis (DIGSA). To be noted: Digitaria sanguinalis, post-emergence, 312 h; Application Rate 500 g/Ha; evaluated after 13 days; Method A; read-out: Control of weed species after post-emergence application, DIGSA (100=total damage to plant; 0=no damage to plant). The procedure, abridged: (§1)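 Plants grown 14 days in glasshouse (24/16 °C, 14 h light, 65% humidity) were sprayed with compound formulated in IF50. The spray was diluted in 0.25% or 1% Empicol ESC70 plus 1% ammonium sulphate. Damage was scored 13 days later on a 0-100 scale, where 100 is total damage.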

The test system of experiment [2] is Lolium perenne (LOLPE). Conditions: Lolium perenne, post-emergence, 312 h, Application Rate 500 g/Ha; evaluated after 13 days; Method A; read-out: Control of weed species after post-emergence application, LOLPE (100=total damage to plant; 0=no damage to plant). The procedure, abridged: as §1
The test system of experiment [3] is Euphorbia heterophylla (EPHHL). To be noted: Euphorbia heterophylla, post-emergence, 312 h; Application Rate 500 g/Ha; evaluated after 13 days; Method A; read-out: Control of weed species after post-emergence application, EPHHL (100=total damage to plant; 0=no damage to plant). The procedure, abridged: as §1
For experiment [4], the system named is Chenopodium album (CHEAL). Conditions: Chenopodium album, post-emergence, 312 h; Application Rate 500 g/Ha; evaluated after 13 days; Method A; read-out: Control of weed species after post-emergence application, CHEAL (100=total damage to plant; 0=no damage to plant). Summed up: as §1
Experiment [5] relates to Echinochloa crus-galli (ECHCG). Conditions: Echinochloa crus-galli, post-emergence, 312 h; Application Rate 500 g/Ha; evaluated after 13 days; Method A; read-out: Control of weed species after post-emergence application, ECHCG (100=total damage to plant; 0=no damage to plant). The procedure, abridged: as §1
For experiment [6], the system named is Setaria faberi (SETFA). To be noted: Setaria faberi, post-emergence, 312 h; Application Rate 500 g/Ha; evaluated after 13 days; Method A; read-out: Control of weed species after post-emergence application, SETFA (100=total damage to plant; 0=no damage to plant). Summed up:
as §1

For experiment [7], the system named is Amaranthus palmeri (AMAPA). To be noted: Amaranthus palmeri, post-emergence, 312 h; Application Rate 500 g/Ha; evaluated after 13 days; Method A; read-out: Control of weed species after post-emergence application, AMAPA (100=total damage to plant; 0=no damage to plant). Summed up: as §1
Experiment [8] deals with Ipomoea hederacea (IPOHE). Conditions: Ipomoea hederacea, post-emergence, 312 h, Application Rate 500 g/Ha; evaluated after 13 days; Method A; read-out: Control of weed species after post-emergence application, IPOHE (100=total damage to plant; 0=no damage to plant). The procedure, abridged: as §1
For experiment [9], the system named is Eleusine indica (ELEIN). Conditions: Eleusine indica, post-emergence, 312 h; Application Rate 500 g/Ha; evaluated after 13 days; Method A; read-out: Control of weed species after post-emergence application, ELEIN (100=total damage to plant; 0=no damage to plant). Summed up: as §1

In patent publication US20220125051A1, “PRE-HARVEST DESICCATION METHOD” (SYNGENTA CROP PROTECTION AG, priority 2019, published 2022) one finds pest or weed control data, which are given here for 14 compounds.

In the case of `O=C(O)CC[n+]1ccc(-c2ncc(Cl)c(=O)[nH]2)cn1` [Compound A161, 3-[4-(5-chloro-6-oxo-1H-pyrimidin-2-yl)pyridazin-1-ium-1-yl]propanoic acid 2,2,2-trifluoroacetate], the pest or weed control at 500 g/ha turned out to be 20% in [1]; 10% in [2]; 50% in experiment [3]; 70% in experiment [4]; 20% in [5]; 10% in experiment [6]. Also, the pest or weed control at 500 g/ha in experiment [7] was found to be 30%; in experiment [8], 20%; in experiment [9] it was 20%.

With `O=C(O)CC[n+]1ccc(-c2ncc(CO)cn2)cn1` [Compound A162], the pest or weed control at 500 g/ha in experiment [1] was 70%; in experiment [2] it was 90%; in experiment [3], 80%; in [4], 70%; in experiment [5], 90%; in experiment [6], 70%. For the same compound, the pest or weed control at 500 g/ha in [7] amounted to 100%; in experiment [8], 10%; in experiment [9], 80%.

Take `Nc1cc(-c2cc[n+](CCS(=O)(=O)[O-])nc2)ncn1` [Compound A164]: the pest or weed control at 500 g/ha came to 30% in [1]; 40% in [2]; 90% in [3]; 80% in [4]; 30% in experiment [5]; 50% in experiment [6]. For the same compound, the pest or weed control at 500 g/ha in experiment [7] is 100%; in [8], 40%; in [9] it was 80%.

Take `O=S(=O)([O-])CC[n+]1ccc(-c2ccnc(C(F)(F)F)c2)cn1` [Compound A165]: the pest or weed control at 500 g/ha was determined as 60% in experiment [1]; 60% in experiment [2]; 50% in [3]; 50% in [4]; 70% in experiment [5]; 60% in experiment [6]. Moreover, the values for the pest or weed control at 500 g/ha in [7], in experiment [8] and in [9] were 100%, 40% and 70%, respectively.

`O=C(O)CC[n+]1ccc(-c2ccnc(C(F)(F)F)c2)cn1` [Compound A166]: the pest or weed control at 500 g/ha in experiment [1] turned out to be 70%; in experiment [2] it was 70%; in [3], 60%; in experiment [4], 50%; in experiment [5] it was 50%; in experiment [6] it was 40%. In addition, the pest or weed control at 500 g/ha in experiment [7] was determined as 30%; in experiment [8], 60%; in [9], 60%.

For `CC(C)(C[n+]1ccc(-c2ccncn2)cn1)C(=O)O` [Compound A167], the pest or weed control at 500 g/ha worked out at 50% in [1]; 40% in [2]; 90% in [3]; 70% in [4]; 60% in [5]; 40% in [6]. Moreover, the pest or weed control at 500 g/ha in experiment [7] stood at 20%; in experiment [8], 100%; in experiment [9], 80%.

Turning to `O=S(=O)([O-])CCC[n+]1ccc(-c2ccc(-c3ccc(Cl)nn3)nn2)cn1` [Compound A168], the pest or weed control at 500 g/ha in experiment [1] stood at 10%; in [2], 10%; in experiment [3], 30%; in experiment [4] it was 40%; in experiment [5], 20%; in [6] it was 10%. The pest or weed control at 500 g/ha was 0% in experiment [7], 20% in experiment [8] and 20% in experiment [9].

For the compound `O=S(=O)([O-])CC[n+]1ccc(-c2ncc(CO)cn2)cn1` [Compound A170], the pest or weed control at 500 g/ha came to 40% in [1]; 50% in experiment [2]; 70% in experiment [3]; 100% in [4]; 80% in experiment [5]; 80% in experiment [6]. Further, the figures for the pest or weed control at 500 g/ha in experiment [7], in experiment [8] and in [9] were 100%, 40% and 40%, respectively.

On to `CC(CC(=O)O)[n+]1ccc(-c2ccncn2)cn1` (stereo not drawn) [Compound A172], for which the pest or weed control at 500 g/ha in experiment [1] worked out at 80%; in experiment [2] it was 20%; in experiment [3], 50%; in experiment [4], 60%; in experiment [5], 50%; in experiment [6], 50%. Further, the values for the pest or weed control at 500 g/ha in experiment [7], in [8] and in experiment [9] were 30%, 40% and 70%, respectively.

Take `O=c1[nH]c(-c2cc[n+](CCCS(=O)(=O)[O-])nc2)ncc1Cl` [Compound A173]: the pest or weed control at 500 g/ha in experiment [1] came to 20%; in experiment [2] it was 10%; in experiment [3] it was 40%; in experiment [4], 50%; in experiment [5], 30%; in experiment [6], 30%. The pest or weed control at 500 g/ha was 30% in [7], 20% in experiment [8] and 10% in experiment [9].

Take `O=S(=O)([O-])CC[n+]1ccc(-c2ccc(C(F)(F)F)cn2)cn1` [Compound A174]: the pest or weed control at 500 g/ha was determined as 50% in [1]; 60% in experiment [2]; 60% in experiment [3]; 40% in [4]; 50% in [5]; 60% in [6]. The figures for the pest or weed control at 500 g/ha in experiment [7], in experiment [8] and in experiment [9] were 100%, 50% and 60%, respectively.

`O=S(=O)([O-])CC[n+]1ccc(-c2ncc(C(F)(F)F)cc2Cl)cn1` [Compound A175]: the pest or weed control at 500 g/ha in experiment [1] worked out at 40%; in [2], 10%; in [3], 30%; in [4], 60%; in experiment [5], 30%; in [6], 30%. Moreover, the pest or weed control at 500 g/ha came out at 30% in experiment [7], 20% in experiment [8] and 40% in experiment [9].

Regarding `Cc1cnc(-c2cc[n+](CCC(=O)O)nc2)c(C)c1` [Compound A177], the pest or weed control at 500 g/ha in experiment [1] was determined as 10%; in experiment [2] it was 0%; in [3], 30%; in experiment [4], 50%; in experiment [5], 0%; in experiment [6], 0%. The pest or weed control at 500 g/ha in [7] stood at 60%; in experiment [8] it was 20%; in experiment [9], 10%.

In the case of `Cc1cnc(-c2cc[n+](CCC(=O)O)nc2)c(F)c1` [Compound A178], the pest or weed control at 500 g/ha turned out to be 10% in experiment [1]; 0% in experiment [2]; 40% in experiment [3]; 70% in experiment [4]; 10% in [5]; 10% in experiment [6]. In addition, the pest or weed control at 500 g/ha in experiment [7] was 90%; in experiment [8], 20%; in experiment [9], 0%.
